Experimental data as given in patent US10285986B2, “Compounds and anti-tumor NQO1 substrates” (The Board of Trustees of the University of Illinois, priority 2011, dated 2019).
In brackets after ≈: the same amount, converted by molar mass. Several values for one entry are separate records, joined by “and”; a condition that tells them apart may be missing. Equal entries are not always repeated. Where two headings read alike, the source gives them in different places.

What was measured:
MCF-7 cells = test: Cytotoxicity to MCF-7 cells with or without 25 μM dicoumarol (sulforhodamine B assay); assay type: cell-based, human; details: for IC50: Homo sapiens; for Fold Protection of MCF7 cells w/ 25 μM dicoumarol: Table 1
Description: The NQO1-dependent cytotoxicity of the first set of derivatives was determined in MCF-7 cells which express high levels of NQO1. Cells were exposed to DNQ for 2 hours in the presence or absence of 25 μM DIC. The media was then removed and cells were washed once with media then fresh media was added and the cells were incubated for 72 hours. Cell death was assessed using the sulforhodamine B assay previously described. […] Substitution off the nitrogen appeared well tolerated (4-14 and 4-15).
The DNQ derivatives synthesized were assayed for their toxicity to MCF-7 cells with or without DIC. The data from these experiments is organized in Table 4.2. […] This tolerance of sterically-demanding substituents corresponds with a flexible and promiscuous NQO1 active site. The poor activity of hydroxyl derivative 4-41 may be a result of either poor binding with the largely hydrophobic NQO1 active site or with an excessively strong substrate-enzyme interaction because of hydrogen bonding.

[1] = Aqueous solubility in pH 7.4 PBS by LC-MS; assay type: physicochemical; details: phosphate buffered saline, pH 7.4, aqueous buffer, thermodynamic from solid, PBS pH 7.4; Table 4.3
Description: The aqueous solubility of DNQ at pH 7.4 in phosphate buffered saline (PBS) was measured by LC-MS. DNQ was sonicated for 30 minutes in PBS then undissolved solid was removed by filtration through a 0.45 μm syringe filter and the filtrate was analyzed by LC-MS (λ=275 nm, ESI-TOF in negative mode). The optimal sonication time was determined by sonicating DNQ for 1, 5, 10, and 30 minutes. While the concentration of DNQ in solution increased substantially between 1, 5, and 10 minutes, there was only a minor difference between 10 and 30 minutes. During the 30 minute sonication the water bath warmed to 45° C. (samples were cooled to room temperature before filtration). A calibration curve was generated from 1-100 μM by dissolving DNQ in methanol to a concentration of 500 μM and making dilutions of this stock in 80:20 water:methanol. The calibration curve (measure by UV absorbance) was linear over this range; 1 μM was approximately the limit of detection. […] The solution was very pale yellow.
The aqueous solubility of the compounds was determined by an LC-MS assay as described in the specification above. We applied the calibration curve generated for DNQ to the derivatives under the assumption that the UV profile of the derivatives of DNQ would be similar to that of DNQ.
After sonication and filtration most of the aqueous solutions were colorless. The solutions of DNQ, 4-31, and 4-37 were faintly yellow while 4-8, 4-14 and 4-41 were substantially more colored. The solution of 4-8, 4-14 and 4-41 were diluted 10-fold with PBS prior to LC-MS analysis to ensure that the concentrations fell within the range of the calibration curve.

[2] = Solubility in organic solvents; assay type: physicochemical; details: organic solvent or mixture, thermodynamic from solid; THF; Table 1
[3] = Solubility in 20% HPβCD solution (pH modulation protocol); assay type: physicochemical; details: 20% HPβCD in pH 7.4 PBS, pH 7.4, aqueous with cosolvent or surfactant or cyclodextrin, thermodynamic from solid; 20% HPβCD; Table 4.3
Description: The protocol for formulating DNQ compounds in HPβCD is as follows: the DNQ compound is slurried in a 20% solution of HPβCD in pH 7.4 PBS and the pH is then increased by the addition of 10 M NaOH to induce dissolution of the DNQ compound. The pH is returned to pH 7.5-8.0 by the careful addition of 1 M HCl. A 3.3 mM solution of the DNQ compound can be made by this method which is stable at least 24 hours. This represents a 30-fold increase in solubility of DNQ over PBS alone.
Although we were pleased to find active derivatives of DNQ that were up to 4-fold more soluble in water—sufficiently soluble for continuous IV infusion for human administration—this level of solubility was insufficient for animal studies by bolus injection. […] We used the same pH modulation protocol outlined for DNQ described in the specification above. The results are organized in Table 4.3 and FIG. 8. While all compounds were more soluble in HPβCD than in buffer alone, the fold increase in solubility varied widely.

NQO1 = NQO1 (Homo sapiens, UniProt P15559); test: NQO1 enzymatic measurements in vitro; assay type: biochemical; details: 1 μM substrate
Sequence of NQO1 (P15559 whole entry): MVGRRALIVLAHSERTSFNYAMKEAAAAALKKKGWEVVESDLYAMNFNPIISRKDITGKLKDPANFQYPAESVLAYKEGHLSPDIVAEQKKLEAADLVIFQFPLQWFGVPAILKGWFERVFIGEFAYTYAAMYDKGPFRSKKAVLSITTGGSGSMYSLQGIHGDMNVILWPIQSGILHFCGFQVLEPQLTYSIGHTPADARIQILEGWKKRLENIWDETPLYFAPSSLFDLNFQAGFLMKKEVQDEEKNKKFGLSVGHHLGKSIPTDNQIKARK
Description: As further evidence that the activity of these DNQ derivatives is dependent on their ability to be reduced by NQO1, full enzymatic measurements in vitro were performed. We found a strong correlation between catalytic efficiency of substrates in vitro and their cell culture toxicity. […] This provides strong evidence that the cytotoxicity of DNQ and its derivatives are dependent primarily upon the activity of NQO1 within the cell.

[4] = Maximum tolerated dose in mice; details: mouse, in vivo, ip
Source text: Because of the difficulty of repeated tail vein injections in mice, our group is using IP administration of compound.
All of these derivatives are currently being assessed for their maximum tolerated dose (MTD) in healthy mice. Compounds are formulated in HPβCD and delivered by IP injection to two mice once daily for five days.

[5] = Solubility in organic solvents; assay type: physicochemical; details: for solubility: organic solvent or mixture, thermodynamic from solid
Description: The solubility of DNQ derivatives in organic solvents was determined by measuring the amount of a given solvent required to dissolve a known amount of compound. Solvent was added to the compound in 50 μL aliquots and the slurry was sonicated. […] Solubility was assessed in DMSO, dichloromethane, and 33% methanol in dichloromethane (FIGS. 9, 10, and 11, respectively).

[6] = MCF7, Table 1, read-out: MCF7 IC50
[7] = MCF7, Table 4.2, no DIC, ± s.e., read-out: IC50 vs. MCF-7 cells
[8] = MCF7, classification in figure legends of FIGS. 7-11, read-out: IC50 ("active" / generally "inactive" compounds)
[9] = MCF7, read-out: IC50 vs. MCF-7 cells +25 μM DIC, Table 4.2, +25 μM DIC, ± s.e.
[10] = 2:1 CH2Cl2:MeOH, Table 4.3, read-out: Solubility in 2:1 CH2Cl2:MeOH
[11] = CH2Cl2:MeOH 2:1, Table 1, read-out: CH2Cl2:MeOH 2:1 solubility
[12] = CH2Cl2, Table 1, read-out: CH2Cl2 solubility
[13] = DMSO, Table 1, read-out: DMSO solubility
[14] = MCF7, 2 h, Table 4.1, 2 h exposure, no DIC, ± s.e., read-out: IC50 vs. MCF-7 cells
[15] = MCF7, read-out: IC50 vs. MCF-7 cells +25 μM DIC, Table 4.1, +25 μM DIC, ± s.e.
[16] = CH2Cl2, Table 4.3, read-out: Solubility in CH2Cl2
[17] = DMSO, Table 4.3, read-out: Solubility in DMSO

| Structure (SMILES) | IC50 (MCF-7 cells; [6]) [nM] | IC50 (MCF-7 cells; [7]) [nM] | IC50 (MCF-7 cells; [8]) [nM] | IC50 (MCF-7 cells; [9]) [nM] | Fold Protection of MCF7 cells w/ 25 μM dicoumarol (MCF-7 cells) | Fold protection by DIC (MCF-7 cells; Table 4.2) | solubility at 30 min [1] [mM] | solubility [2] [mM] | solubility [3] [mM] | NQO1 Initial Velocity @ 1 μM (NQO1) | MTD at 5 days [4] | Solubility in CH2Cl2 ([5]; CH2Cl2, Table 4.3) [mM] | Solubility in DMSO ([5]; DMSO, Table 4.3) [mM] | solubility [5, 10] [mM] | solubility [5, 11] [mM] | solubility [5, 12] [mM] | solubility [5, 13] [mM] | further results |
| --- | --- | --- | --- | --- | --- | --- | --- | --- | --- | --- | --- | --- | --- | --- | --- | --- | --- | --- |
| CCCCCCn1c2c(c(C)cc1=O)C(=O)c1c(C)cc(=O)[nH]c1C2=O [Compound 9-257] | 260 ± 40 | 290 ± 40 | < 500 | 3000 ± 600 | 11 | 10 | < 0.005 | 27 (≈ 9570 µg/mL) | 6 (≈ 2130 µg/mL) | 1850 ± 60 | ≥ 16 mg/kg and ≥ 44 µmol/kg | 32 (≈ 11300 µg/mL) | 18 (≈ 6380 µg/mL) | 140 (≈ 49600 µg/mL) | 140 (≈ 49600 µg/mL) | 32 (≈ 11300 µg/mL) | 18 (≈ 6380 µg/mL) | – |
| Cc1cc(=O)[nH]c2c1C(=O)c1c(C)cc(=O)n(CCC(C)C)c1C2=O [Compound 9-249] | 150 ± 30 | 180 ± 30 | < 500 | 1800 ± 500 | 12 | 10 | 0.006 (≈ 2.04 µg/mL) | 8.8 (≈ 3000 µg/mL) | 4.7 (≈ 1600 µg/mL) | 2100 ± 90 | 15 mg/kg and 44 µmol/kg | 9.7 (≈ 3300 µg/mL) | 8.6 (≈ 2930 µg/mL) | 58 (≈ 19700 µg/mL) | 58 (≈ 19700 µg/mL) | 9.7 (≈ 3300 µg/mL) | 8.6 (≈ 2930 µg/mL) | – |
| CCCCn1c2c(c(C)cc1=O)C(=O)c1c(C)cc(=O)[nH]c1C2=O [Compound 4-22] | 270 | 270 ± 40 | < 500 | 1500 ± 400 | 5.5 | 5.5 | 0.017 (≈ 5.55 µg/mL) | 6.1 (≈ 1990 µg/mL) | 4 (≈ 1310 µg/mL) | 2100 ± 300 | – | 7.6 (≈ 2480 µg/mL) | 10 (≈ 3260 µg/mL) | 30 (≈ 9790 µg/mL) | 30 (≈ 9790 µg/mL) | 7.6 (≈ 2480 µg/mL) | 10 (≈ 3260 µg/mL) | – |
| Cc1cc(=O)[nH]c2c1C(=O)c1c(C)cc(=O)n(CC(C)(C)C)c1C2=O [Compound 9-253] | 110 ± 40 | 230 ± 10 | < 500 | 2100 ± 700 | 9 | 8.9 | 0.024 (≈ 8.17 µg/mL) | 20 (≈ 6810 µg/mL) | 9.4 (≈ 3200 µg/mL) | 1700 ± 100 | ≥ 15 mg/kg and ≥ 44 µmol/kg | 23 (≈ 7830 µg/mL) | 16 (≈ 5450 µg/mL) | 100 (≈ 34000 µg/mL) | 100 (≈ 34000 µg/mL) | 23 (≈ 7830 µg/mL) | 16 (≈ 5450 µg/mL) | – |
| CCn1c2c(c(C)cc1=O)C(=O)c1c(C)cc(=O)[nH]c1C2=O [Compound 109] | 530 | – | < 500 | – | 4.5 | – | 0.319 (≈ 95.2 µg/mL) | 18 (≈ 5370 µg/mL) | 5.7 (≈ 1700 µg/mL) | 1500 ± 100 | 10 mg/kg and 35 µmol/kg | 9.5 (≈ 2830 µg/mL) | 24 (≈ 7160 µg/mL) | 19 (≈ 5670 µg/mL) | 19 (≈ 5670 µg/mL) | 9.5 (≈ 2830 µg/mL) | 24 (≈ 7160 µg/mL) | IC50 (MCF-7 cells; [14]): 200 ± 10 nM; IC50 (MCF-7 cells; [15]): 3400 ± 200 nM; Fold protection by DIC (MCF-7 cells; Table 4.1): 17 |
| CCCCCn1c2c(c(C)cc1=O)C(=O)c1c(C)cc(=O)[nH]c1C2=O [Compound 9-255] | 190 ± 10 | 200 ± 10 | < 500 | 2000 ± 900 | 11 | 10 | < 0.005 | 16 (≈ 5450 µg/mL) | 5 (≈ 1700 µg/mL) | 1700 ± 40 | ≥ 15 mg/kg and ≥ 44 µmol/kg | 22 (≈ 7490 µg/mL) | 17 (≈ 5790 µg/mL) | 95 (≈ 32300 µg/mL) | 95 (≈ 32300 µg/mL) | 22 (≈ 7490 µg/mL) | 17 (≈ 5790 µg/mL) | – |
| CCCn1c2c(c(C)cc1=O)C(=O)c1c(C)cc(=O)[nH]c1C2=O [Compound 10-41] | 120 ± 10 | – | < 500 | – | 10 | – | 0.039 (≈ 12.2 µg/mL) | 3.4 (≈ 1060 µg/mL) | 6.3 (≈ 1970 µg/mL) | 1590 ± 70 | ≥ 14 mg/kg and ≥ 44 µmol/kg | 3.9 (≈ 1220 µg/mL) | 8.9 (≈ 2780 µg/mL) | 32 (≈ 9990 µg/mL) | 32 (≈ 9990 µg/mL) | 3.9 (≈ 1220 µg/mL) | 8.9 (≈ 2780 µg/mL) | IC50 (MCF-7 cells; [14]): 130 ± 10 nM; IC50 (MCF-7 cells; [15]): 1300 ± 400 nM; Fold protection by DIC (MCF-7 cells; Table 4.1): 10 |
| Cc1cc(=O)[nH]c2c1C(=O)c1c(C)cc(=O)n(CC3CC3)c1C2=O [Compound 4-37] | – | 220 ± 10 | < 500 | 1400 ± 200 | – | 6.1 | 0.114 (≈ 37 µg/mL) | – | 4.3 (≈ 1390 µg/mL) | – | – | – | – | 51 (≈ 16500 µg/mL) | – | – | – | solubility [5, 16]: 13 mM (≈ 4220 µg/mL); solubility [5, 17]: 25 mM (≈ 8110 µg/mL) |
| Cc1cc(=O)[nH]c2c1C(=O)c1c(C)cc(=O)n(C(C)C)c1C2=O [Compound 4-30] | – | 240 ± 20 | < 500 | 2100 ± 800 | – | 8.6 | 0.041 (≈ 12.8 µg/mL) | – | 3.7 (≈ 1160 µg/mL) | – | – | – | – | 79 (≈ 24700 µg/mL) | – | – | – | solubility [5, 16]: 5.6 mM (≈ 1750 µg/mL); solubility [5, 17]: 21 mM (≈ 6560 µg/mL) |
